Our source for the bacteria eliminated values is patent US20250303006A1, “BIOCOMPATIBLE ANTISEPTIC COMPOSITION CONTAINING 9-HYDROXYCALABAXANTHONE AND/OR RELATED XANTHONES” (UNIVERSITAT DE LES ILLES BALEARS, priority 2022, published 2025).

The subject of one assay is P. gingivalis. Description: P. gingivalis culture and proliferation assay (growth rate, live/dead ratio). The format is cell-based, Porphyromonas gingivalis. The following applies: 0.002% HCX, 10 h. The procedure: Bacterium P. gingivalis (ATCC 33277TM, Manassas, VA) was cultured in brain heart infusion (BHI) broth (Scharlab, Barcelona, Spain), supplemented with 0.5 g/l of L-cysteine hydrochloride (Thermo Fisher Scientific), 5.0 mg/I of hemin (Thermo Fisher Scientific), and 1.0 mg/I of vitamin K (Thermo Fisher Scientific) in anaerobic conditions (10% H2, 10% CO2, and 80% N2) achieved with an anaerobiosis sachet and jar (Oxoid Anaerogen™, Thermo Fisher Scientific) at 37° C. for 24-72 h.
Bacteria P. gingivalis were cultured from existing frozen bacteria in BHI broth. After one night of incubation, 1 ml of bacterial suspension (˜3×10^8 bacteria/ml) was treated with different concentrations of HCX (0.00002, 0.0002, 0.002%) for 10 hours in anaerobic conditions (10% H2, 10% CO2, and 80% N2) at 37° C. At regular intervals (0 h and 10 h), optical density (OD) was measured at 600 nm to determine bacterial proliferation (PowerWave Ht, Biotekinstruments, Winooski, VT). […] The proportion of living bacteria/dead bacteria was determined using the LIVE/DEAD BacLight bacterial viability kit (Invitrogen, Thermo Fisher Scientific, Waltham, MA, USA), following the manufacturer's instructions.
Two different concentrations of HA formulated with HCX (0.025 and 0.05%) were used in the present study. […]

A further assay concerns S. epidermidis. Nature of the assay: S. epidermidis culture and proliferation assay. The format is cell-based, Staphylococcus epidermidis. As to the method:
S. epidermidis 4814 (CECT, Valencia, Spain) were grown from frozen stocks in Luria-Bertani (LB) broth (Scharlab, Sentmenat), at 37° C. under aerobic conditions in an orbital shaker (180 rpm). After an overnight incubation, 1 mL of bacterial suspensions were incubated with different concentrations of HCX (0.003, 0.002, 0.001, 0.0002, 0.00002%) for 24 hours at 37° C. under aerobic conditions in an orbital shaker (180 rpm). Bacterial suspension without treatment served as negative control, and CHX at 0.001% served as positive control for bacterial growth inhibition. The optical density (OD) was measured at 600 nm at 0 h, 10 h and 24 h to determine bacterial proliferation (PowerWave Ht, Biotek instruments, Winooski, VT, USA). Bacterial growth rate (μ) was calculated during the exponential growth phase following the equation ln ODt−ln OD0=μ×(t−t0). Live/Dead ratio of bacteria was determined using the LIVE/DEAD BacLight bacterial viability kit (Invitrogen, Thermo Fisher Scientific, Waltham, MA, USA), following manufacturer's instructions. The assays were carried out in triplicate, with two replicates at each condition (n=6). […]

The next assay has as its system S. mutans. Description: S. mutans culture and proliferation assay. Type of assay: cell-based, Streptococcus mutans. The following applies: 5 h. As to the method: S. mutans CECT 479 (obtained from The Spanish Type Culture Collection (CECT), University of Valencia) was grown from frozen stocks in BHI broth (Scharlab), at 37° C. under aerobic conditions in an orbital shaker (180 rpm). After overnight incubation, 1 mL of bacterial suspensions were incubated with different concentrations of CHX (0.01, 0.005, 0.003, 0.001, 0.0001%) and HCX (0.003, 0.002, 0.001, 0.0002, 0.00002%) for 5 hours at 37° C. under aerobic conditions in an orbital shaker (180 rpm). Bacterial suspension without treatment served as negative control (C−). The optical density (OD) was measured at 600 nm at 0 h and 5 h to determine bacterial proliferation (PowerWave Ht). The bacterial growth rate (μ) was calculated during the exponential growth phase following the equation ln ODt−ln OD0=μ×(t−t0) (n=3). The live/Dead ratio of bacteria was determined using the LIVE/DEAD BacLight bacterial viability kit (Invitrogen), following the manufacturer's instructions. The assays were carried out in triplicate, with two replicates at each condition (n=3).
The bacteria S. mutans was cultured and treated with different commercial periodontal gels and HA formulated with 0.1%, 0.05%, and 0.01% HCX and aMG for 24 h. The gels were tested at a concentration of 5% (v/v), and the experiment was run like in experiment 8 of section 8.1.

Another assay has as its system C. acnes. Nature of the assay: C. acnes culture and proliferation assay. The following applies: 0.0002% HCX, 24 h. The format is cell-based, Cutibacterium acnes. As to the method: C. acnes 5684 (CECT, Valencia, Spain) was grown on Tryptic soy broth (TSB) (Scharlab), supplemented with 0.5 g/I L-Cysteine hydrochloride (Thermo Fisher Scientific), 1.0 mg/I hemin (Thermo Fisher Scientific) and 5.0 mg/I glucose (Scharlab) under anaerobic conditions (10% H2, 10% CO2 and 80% N2) achieved with an Oxoid Anaerogen™ sachet (Thermo Fisher Scientific) at 37° C. for 48 h. After overnight incubation, 1 mL of C. acnes was incubated with different concentrations of CHX (0.01, 0.005, 0.003, 0.001%) and HCX (0.003, 0.002, 0.001, 0.0002%) for 24 hours at 37° C. under anaerobic conditions achieved with an Oxoid Anaerogen™ sachet. Bacterial suspension without treatment served as negative control (C−). The optical density (OD) was measured at 600 nm at 0 h and 24 h to determine bacterial proliferation (PowerWave Ht). The bacterial growth rate (μ) was calculated during the exponential growth phase following the equation ln ODt−ln OD0=μ×(t−t0) (n=4). The live/Dead ratio of bacteria was determined using the LIVE/DEAD BacLight bacterial viability kit (Invitrogen), following the manufacturer's instructions. The assays were carried out in triplicate.

With `COc1c(O)cc2oc3cc4c(c(O)c3c(=O)c2c1CC=C(C)C)C=CC(C)(C)O4` [HCX, 9-hydroxycalabaxanthone], the bacteria eliminated with P. gingivalis is given as 100%; in the assay on S. epidermidis (0.001% HCX, 10 h), 100%; in the assay on S. epidermidis (0.003% HCX, 24 h), 80%; with S. mutans (0.0002% HCX), 70%; in the assay on S. mutans (0.001% HCX), 90%; with C. acnes, 96%.
